# In patent publication US20250311722A1, “IMPROVED BIOCIDE” (Purgos ApS, priority 2022, published 2025):
# “And” between values parts separate entries of the source, which are not always exact repeats. Equal entries are not always repeated.
# Key:
# [1] = tested on: Pseudomonas aeruginosa, ATCC 10145; assay: PT6 screening, in-can preservation of acrylic paint (ATP, aerobic and anaerobic growth on agar plate); assay type: cell-based
# Experimental: The microbial activity in relation to in-can preservation of paint was tested using three methods: ATP measurement, Aerobic growth on agar plate and Anaerobic growth on agar plate in low-air conditions. […] Furthermore, no significant dependence on concentration was shown in these specific tests. Specific about the ATP measurements: test and method developed by Luminultra. A sample is taken from the test paint at a given time and the total amount of ATP is measured. Total ATP amount are measured at Day 7 and 30. After every ATP measurement, streaking of test material on agar plates has been performed. Growth test in aerobic and anaerobic environment are running in 1 and 14 days, respectively. Test organism: Pseudomonas aeruginosa, ATCC 10145 [table] The commercial biocide used for the results listed in Table VIII is Vinkocide CMIK R. Acrylic paint is standard EN152 (modified without PT6 biocide). P. aeruginosa are inoculated in 200 μl concentration to paint sample size of 140 ml in a sterile “paint can-shape” container. Shark Solution candidate A and the commercial biocide are added to the standard paint and mixed in a shaker machine. Every matrix is tested in two replications (n=2) with an additional replication without inoculation of bacteria.
# [2] = tested on: selected typical species of contaminants; assay: Substitution of conventional biocides with NBDA in products, LuminUltra test against controls; assay type: cell-based
# From the text: A test sample (T): In a known recipe for a product comprising one or more conventional biocide(s), said biocide(s) is replaced with NBDA (or another tert, amine according to the present invention).
# A control sample (C): Product comprising one or more conventional biocide(s) produced following an established recipe.
# A negative control sample (N): A further negative control may be provided by removing said conventional biocide(s) from the recipe, without addition of NBDA (or other biocides). Provision and test of the N-sample can be optional.
# Samples, such as test-, control- and/or negative control samples are provided according to Example 3. To assess the effect of the biocide(s), microbial contamination is measured, such as according to Example 6, or other conventional methods known in the art.
# In short, samples are exposed to microbial contamination (microbial stress test) e.g. by opening a lid and closing it for a defined period of time, or other operations, mimicking a conventional user situation. Alternatively, samples can be inoculated with defined quantities of microorganisms, such as one or more indicator microorganism.
# The samples can be divided into different aliquots, and incubated for selected periods at one or more relevant temperatures, such as e.g. one or more of 4° C., room temperature (RT, usually 20° C., 22° C., or 25° C.), 30° C., 32° C., 37° C., 40° C., and/or 60° C.), simulating e.g. appropriate storage, processing and usage conditions.
# ATP, such as intracellular ATP is measured using a commercially available system, such as provided by LumiUltra®, in particular a method using luminase (Aqua Tools, see details below).
# In short, a buffering solution and Luminase enzyme are mixed. After daily ATP standard calibration, an aliquot, such as 1 ml of sample is transferred to an 1 ml extraction tube. After dilution in UltraLute resin, the total ATP (content can be established in the luminescence measuring device. 2) 1 ml sample is dissolved in LumiSolve stabilizing agent. […] For further details, see e.g. Aqua Tools (78300 Poissy, France) Quick reference guide QuenchGone21™ Speciality Test Kit QG21S-50/QG21St-100 2G.
# [3] = tested on: Coniophora puteana. BAM Ebw. 15; assay: EN 113 test against wood destroying basidiomycetes; assay type: cell-based; details: for Corrected mass loss / Mass loss: single blocks
# From the text: EN 113, 2020: Durability of wood and wood-based products-Test method against wood destroying basidiomycetes. Assessment of biocidal efficacy of wood preservatives.
# Assessment of the results shown in table XIV.: The protection provided for the wood by the test preservative at the given concentration is deemed to be adequate if: • a) the corrected mean loss is less than 3.0% (m/m) • b) not more than one specimen has suffered a loss in mass greater than 3.0% (m/m) but less than 5.0% (m/m)
# The impregnation process was carried out on 24-03-2021 with the following conditions:
# Pre-vacuum at 0.1 bar for 30 minutes.
# Pressure of 13 bars for 60 minutes.
# Scots pine sapwood (Pinus sylvestris L.) for brown rot fungi with an average density of 589 kg/m3.
# 4 weeks according to EN 113 at 65% RH and 20° C. until stable mass was obtained.
# Ionising radiation (2× 25 kGy).
# [4] = tested on: rat; assay: LD50 (rat, oral); assay type: in vivo; details: extrapolated from rat LD50 4250 mg/kg
# [5] = 10% N-BDA in water; cited from earlier work
# [6] = tested on: Murine norovirus; assay: ASTM E1052 Kill Time Screen test, antiviral activity; assay type: cell-based
smiles,measurement,setting,value
"CCCCN(CCO)CCO [NBDA, N-butyldiethanolamine]",anti-microbial potential in paint,"[1]; 1, 2 and 5% NBDA",reveal anti-microbial potentials
same,effectiveness in in-can preservation of paints,"[1]; concentrations of 0.5%, 1%, 2%, and 5%",effective against aerobic bacteria
same,biocidal protection,"[2]; SBR precoat composition for carpets, MIT/BIT substituted with 0.5% NBDA",same performance as the origin
same,biocidal effect,"[2]; Styrene-Butadiene-Rubber (SBR)-emulsion, MIT and/or BIT replaced, 32° C.",comparable and better than the normal biocide package
same,biocidal effect,"[2]; algae removing compound, benzalkonium chloride replaced with 1-5%, 32° C.",comparable or even surpassing benzalkonium chloride in function
same,biocidal effect,"[2]; circulating heat-transfer systems, benzalkonium chloride replaced with 1-5%, 32° C.",comparable to benzalkonium chloride
same,biocidal effect,"[2]; combination dispersions, emulsions, suspensions, 32° C.",comparable and better than the normal biocide package
same,biocidal effect,"[2]; disinfection compound for pipes, benzalkonium chloride replaced with 1-5%, 32° C.",comparable to benzalkonium chloride
same,preservation effect,"[2]; food, preservatives substituted with comparable amounts of NBDA",suitable preservation effect(s) as the beforementioned preservative(s)
same,biocidal effect,"[2]; hand cleanser, sodiumbenzoate, MIT and BIT replaced, 32° C.",comparable or even better than the normal biocide package
same,biocidal effect,"[2]; liquid dishwashing compound, MIT/BIT replaced with 0.01-1%, 32° C.",comparable to or even surpassing the conventional biocide
same,biocidal effect,"[2]; liquid disinfection compound, benzalkonium chloride replaced with 1-5%, 32° C.",comparable or even surpassing benzalkonium chloride in function
same,biocidal effect,"[2]; moisturizing crème, benzoate and commercial biocides replaced, 32° C.",comparable or even better than the normal biocide package
same,biocidal effect,"[2]; soap, sodiumbenzoate, MIT and BIT replaced, 32° C.",comparable or even better than the normal biocide package
same,biocidal effect,"[2]; stabilized suspension, MIT and BIT replaced, 32° C.",comparable and better than the normal biocide package
same,biocidal effect,"[2]; swimming pool water, chlorine compounds replaced, 32° C.",comparable or even better than chlorine based traditional solutions
same,biocidal effect,"[2]; toothpaste, benzoate (e.g. 0.5%) replaced with similar concentration",comparable or even better than benzoate
same,biocidal effect,"[2]; veterinary disinfection compound, benzalkonium chloride and/or glutaraldehyde replaced with 1-5%, 32° C.",comparable or even surpassing both benzalkonium chloride and glutaraldehyde in function
same,biocidal effect,"[2]; waterborne cooling compound, benzalkonium chloride replaced with 1-5%, 32° C.",comparable or surpassing benzalkonium chloride
same,biocidal effect,"[2]; watersystems for toilets, washing facilities, benzalkonium chloride replaced with 1-5%, 32° C.",comparable to benzalkonium chloride
same,"Toxic value, Retention of product",[3]; Scots pine sapwood,>9.86 kg/m^3
same,"Toxic value, Solution conc.",[3]; Scots pine sapwood,>1.43 % w/w
same,"Corrected mass loss, Mean",[3]; solution conc. 0.36% w/w,36.6%
same,"Mass loss, Mean",[3]; solution conc. 0.36% w/w,36.8%
same,Corrected mass loss,[3]; solution conc. 0.36% w/w,39.2% and 27.2% and 47.6% and 32.3%
same,Mass loss,[3]; solution conc. 0.36% w/w,39.4% and 27.4% and 47.8% and 32.5%
same,"Corrected mass loss, Mean",[3]; solution conc. 0.51% w/w,38.3%
same,"Mass loss, Mean",[3]; solution conc. 0.51% w/w,38.5%
same,Corrected mass loss,[3]; solution conc. 0.51% w/w,42.4% and 39.5% and 34.0% and 37.2%
same,Mass loss,[3]; solution conc. 0.51% w/w,42.6% and 39.7% and 34.2% and 37.4%
same,"Corrected mass loss, Mean",[3]; solution conc. 0.72% w/w,37.4%
same,"Mass loss, Mean",[3]; solution conc. 0.72% w/w,37.1%
same,Corrected mass loss,[3]; solution conc. 0.72% w/w,29.8% and 43.3% and 36.9% and 39.7%
same,Mass loss,[3]; solution conc. 0.72% w/w,29.5% and 43.0% and 36.6% and 39.3%
same,"Corrected mass loss, Mean",[3]; solution conc. 1.01% w/w,40.4%
same,"Mass loss, Mean",[3]; solution conc. 1.01% w/w,39.9%
same,Corrected mass loss,[3]; solution conc. 1.01% w/w,37.2% and 41.8% and 45.1% and 37.3%
same,Mass loss,[3]; solution conc. 1.01% w/w,36.7% and 41.4% and 44.6% and 36.8%
same,"Corrected mass loss, Mean",[3]; solution conc. 1.43% w/w,36.1%
same,"Mass loss, Mean",[3]; solution conc. 1.43% w/w,35.0%
same,Corrected mass loss,[3]; solution conc. 1.43% w/w,31.1% and 37.2% and 38.4% and 37.8%
same,Mass loss,[3]; solution conc. 1.43% w/w,30.0% and 36.2% and 37.3% and 36.7%
same,human consummation equivalent to LD50,[4],319 gram pr 75 kg
same,pH,[5],around 11.1
same,Mean log reduction after 60 seconds,[6]; 1.0% NBDA,0.34
same,Mean log reduction after 60 seconds,[6]; 5.0% NBDA,0.34
same,Norovirus eliminated (destroyed) in 60 seconds,[6]; from log reduction 0.34,54%
